# Read-outs that look alike come from different tables or passages of the source.
# Legend:
# PDE4 [1] = assay: PDE4 activity in homogenate of guinea pig lungs or hearts (PDE4L); type: biochemical; details: guinea pig lung or heart homogenate; read-out: IC50 for PDE4 inhibition (PDE4L value)
# Experimental: (§1) Activities of PDE1∼5 in the homogenate of guinea pig lungs or hearts were measured by a two-step procedure according to the previous method, using cAMP with [^3 H]-cAMP or cGMP with [^3 H]-cGMP as substrates. The enzyme preparation (25 μL) was incubated for 30 min at 37°C in a total assay volume of 100 μL containing 50 mM Tris-HCl (pH 7.4), 3 mM MgCl2, 1 mM dithiothreitol, 0.05% BSA, and 1 μM cAMP with 0.2 μCi [^3 H]-cAMP as a substrate alone or in the presence of 0.1 unit calmodulin with 10 μM CaCl2 or 5 μM cGMP, and 1 μM cGMP with 0.2 μCi [^3 H]-cGMP as another substrate alone or in the presence of 0.1 unit calmodulin with 10 μM CaCl2. […] The reagents and homogenate were mixed on ice, and the reaction was initiated by transferring the mixture to a water bath at 37°C. Following a 30 min incubation, the reaction was stopped by transferring the reaction vessel to a bath of boiling water for 3 min. After cooling on ice, 20 μL of a 1 mg/mL solution of Crotalus atrox snake venom was added to the reaction mixture, and the mixture was incubated at 37°C for 10 min. Unreacted [^3 H]-cAMP or [^3 H]-cGMP was removed by the addition of 500 μL of a 1-in-1 Tris-HCl (40 mM) buffer suspension of Dowex resin (1 × 2-400) with incubation on ice for 30 min. Each tube was then centrifuged at 3700 g for 2 min, and 100 μL of the supernatant was removed for liquid scintillation counting.
# [2] = tested on: duration of xylazine/ketamine-induced anesthesia; assay: Xylazine/ketamine-induced anesthesia (surrogate of emesis); type: in vivo, BALB/c mice; details: mice
# Experimental: According to a previously described method and modified by us, hesperidin, hesperidin-3′-O-methylether (each 300 μmol/kg, subcutaneously (s.c.)), or Ro 20-1724 (0.01∼1 μmol/kg, s.c.), a reference drug, was, respectively, injected into 8∼12-week-old female BALB/c mice 1, 1 or 0.25 h prior to an i.p. injection of xylazine (10 mg/kg)/ketamine (70 mg/kg). The vehicle (control) for hesperidin, hesperidin-3′-O-methylether, or Ro 20-1724 was a mixture of DMSO : PEG 400 : saline (1 : 1 : 8, v/v). After the loss of the righting reflex (i.e., when a mouse remained on its back and no longer spontaneously righted itself to a prone position), the duration of anesthesia was measured until its return as the endpoint.
# [3] = tested on: high-affinity rolipram-binding sites (HARBSs), PDE4H; assay: Displacement of [3H]-rolipram from high-affinity rolipram-binding sites of brain cell membranes (PDE4H); parameters: species or system guinea pig; details: for EC50: 2 nM [3H]-rolipram, read-out: EC50 (PDE4H) for displacing [3H]-rolipram binding; for PDE4H/PDE4L ratio: therapeutic ratio, EC50 (PDE4H) / IC50 (PDE4L)
# Experimental: When the above-mentioned guinea pigs were sacrificed, the whole brains were removed and homogenized with a glass/Teflon homogenizer (Glas-Col, Terre Haute, IN, USA) in 10 volumes of cold medium (pH 6.5) containing 20 mM Bis-Tris, 2 mM benzamidine, 2 mM EDTA, 50 mM sodium chloride, 0.1 mM PMSF, and 1 mM dithiothreitol. At 4°C, the homogenate was centrifuged at 170 g for 5 min to remove connective tissues and blood vessels. The suspended homogenate was then recentrifuged at 40,000 g for 30 min to separate the cytosolic and particulate portions. The particulate portion was resuspended in a suspension at a concentration of 400 mg/mL (wet weight/volume), after washing three times with homogenizing buffer. The particulate portion mainly consisted of cell membranes. […] Briefly, the reaction buffer consisted of 50 mM Tris-HCl and 5 mM MgCl2 (pH 7.5). […] After 1 h, the reaction was terminated by moving the reaction vessel into crushed ice. Then the reaction mixture was transferred onto Whatman GF/B glass-fiber filters, which were soaked in a 0.3% polyethyleneimine solution in a mini-funnel.
# PDE4 [4] = details: read-out: IC50 for PDE4 inhibition; cited from earlier work
# PDE1 = PDE1 activity in homogenate of guinea pig lungs or hearts ([3H]-cAMP/[3H]-cGMP two-step procedure); type: biochemical; details: guinea pig lung or heart homogenate; read-out: IC50 for PDE1 inhibition
# Experimental: as §1
# IL-4 = tested on: IL-4; parameters: method as in PMID 21287361; details: 10 mg/kg (16.38 μmol/kg, p.o.); similar animal model; cited from earlier work
# [5] = tested on: airway hyperresponsiveness in ovalbumin-sensitized and challenged mice; assay: Ovalbumin-induced airway hyperresponsiveness, Penh by whole-body plethysmography; type: in vivo, BABL/c mice; details: for Penh value at the baseline / Penh value with PBS nebulization: sensitized and challenged mice; for enhancement of Penh values induced by 25 and 50 mg/mL methacholine: vs control (vehicle)
# Experimental: (§2) According to the schedule (Figure 2), ten female BABL/c mice in each group were sensitized by an intraperitoneal (i.p.) injection of 20 μg of ovalbumin emulsified in 2.25 mg of an aluminum hydroxide gel, prepared from aluminum sulfate hexadecahydrate, in a total volume of 100 μL on days 0 and 14. Mice were challenged via the airway using 1% ovalbumin in saline for 30 min on days 28, 29, and 30 by ultrasonic nebulization. After the last ovalbumin challenge, AHR was assessed on day 32 (48 h after 1% ovalbumin provocation) in each group. Each group of mice was orally (p.o.) administered the vehicle (control), 30∼100 μmol/kg of hesperidin or 10∼100 μmol/kg of hesperidin-3′-O-methylether 2 h before and 6 and 24 h after ovalbumin provocation. For comparison, sham-treated mice were challenged with saline instead of 1% ovalbumin (nonchallenged). The vehicle, a mixture of DMSO : PEG 400 : saline (1 : 1 : 8, v/v), hesperidin, or hesperidin-3′-O-methylether was administered (p.o.) at a volume of 0.01 mL/g of body weight. AHR was assessed by barometric plethysmography using a whole-body plethysmograph (WBP) and analyzed using software of Life Science Suite P3 Analysis Modules (Gould, LDS Test and Measurement LLC, Valley View, OH, USA) in unrestrained animals. Mice were placed into the main chamber of the WBP, and the baseline enhanced pause (P enh) value was determined. Then mice were first nebulized with phosphate-buffered saline (PBS), and subsequently with increasing doses (6.25∼50 mg/mL) of methacholine for 3 min for each nebulization, followed by readings of breathing parameters for 3 min after each nebulization to determine P enh values. Twenty-four hours after P enh determination, these mice were anesthetized with pentobarbital (50 mg/kg, i.p.), and the lungs were lavaged via a tracheal tube with PBS (1 × 1.0 mL, 37°C). After lavage, blood was collected from the jugular vein and allowed to sit so that it would coagulate. The collected bronchoalveolar lavage fluid (BALF) and coagulated blood were respectively centrifuged at 630 g for 7 min and at 3700 g for 10 min at 4°C. After centrifugation, the BALF and serum supernatants were stored at −20°C until determinations of cytokines, including interleukin (IL)-2, IL-4, IL-5, tumor necrosis factor (TNF)-α, and interferon (IFN)-γ by flow cytometric methods using mouse Th1/Th2 cytokine CBA kits, and of a total immunoglobulin (Ig)E and IgG2a using ELISA kits (Pharmingen, San Diego, CA, USA) according to the respective recommendations of the manufacturers. Ovalbumin-specific IgE was measured as described previously. Wells were coated with 100 μL of ovalbumin (20 μg/mL) instead of the capture antibody. Levels are expressed in arbitrary units, where 1 arbitrary unit equals the optical density of the sample divided by the optical density of unchallenged mouse serum or BALF (standard). The BALF pellet was resuspended in ACK lysing buffer (1.658 g NH4Cl, 0.2 g KHCO3, and […] EDTA in 200 mL of water) to lyse the residual erythrocytes in each sample. The number of inflammatory cells was counted using a hemocytometer (Hausser Scientific, Horsham, PA, USA). Cytospin slides were stained and cell differentials were determined in a blinded fashion by counting at least 100 cells under light microscopy. All undetectable data (<1 pg/mL) of cytokines were taken as 0.5 pg/mL.
# [6] = tested on: inflammatory cells in BALF; assay: Inflammatory cell counts in BALF of sensitized and challenged mice; type: in vivo, BABL/c mice; details: for numbers of all inflammatory cells examined in BALF: 30 μmol/kg p.o.
# Experimental: as §2
# PDE3 = PDE3 activity in homogenate of guinea pig lungs or hearts; type: biochemical; details: guinea pig lung or heart homogenate; read-out: IC50 for PDE3 inhibition
# Experimental: as §1
# [7] = tested on: IgE and IgG2a in serum and BALF; assay: Total and ovalbumin-specific IgE and total IgG2a in serum and BALF (ELISA); type: in vivo, BABL/c mice
# Experimental: as §2
# cytokines in BALF = assay: Cytokine levels in BALF of sensitized and challenged mice (flow cytometric CBA); type: in vivo, BABL/c mice
# Experimental: as §2
# [8] = tested on: xylazine/ketamine-induced anesthesia; details: administered s.c.; cited from earlier work
# [9] = guinea pig brain cell membranes
compound,measurement,setting,value
"CCCCOc1cc(CC2CNC(=O)N2)ccc1OC (stereo not shown) [Ro 20-1724, 4-(3-butoxy-4-methoxybenzyl)-2-imidazolidinone, reference compound]",IC50,PDE4 [1],3.5 ± 0.2 µM
same,duration of xylazine/ketamine-induced anesthesia,"[2]; 0.01∼1 μmol/kg s.c., 0.25 h before anesthesia",dose-dependently shortened
same,duration of xylazine/ketamine-induced anesthesia,"[2]; 0.03∼1 μmol/kg s.c., 0.25 h before anesthesia",significantly shortened
same,EC50,[3]; [9],0.105 ± 0.0131 µM
same,PDE4H/PDE4L ratio,[3],0.03
"COc1cc(O)c2c(c1)O[C@H](c1ccc(OC)c(OC)c1)CC2=O [hesperetin-7,3′-O-dimethylether]",IC50,PDE4 [4],3 µM
"CCOC(=O)C1=C[C@]2(CC)CCCN3CCc4c(n1c1ccccc41)[C@@H]32 [vinpocetine, reference compound]",IC50,PDE1,30.8 ± 1.1 µM
COc1ccc([C@@H]2CC(=O)c3c(O)cc(O[C@@H]4O[C@H](CO[C@@H]5O[C@@H](C)[C@H](O)[C@@H](O)[C@H]5O)[C@@H](O)[C@H](O)[C@H]4O)cc3O2)cc1O [hesperidin],level of IL-4,IL-4,insignificantly inhibit
same,IC50,PDE1,> 100 µM
same,suppression of AHR,[5]; 30 μmol/kg p.o.,"but not hesperidin, significantly suppressed AHR"
same,Penh value at the baseline,[5]; 30 μmol/kg p.o.,2.39 ± 0.06
same,Penh value with PBS nebulization,[5]; 30 μmol/kg p.o.,2.40 ± 0.05
same,Penh value at the baseline,[5]; 100 μmol/kg p.o.,2.41 ± 0.04
same,Penh value with PBS nebulization,[5]; 100 μmol/kg p.o.,2.39 ± 0.05
same,enhancement of Penh values induced by 25 and 50 mg/mL methacholine,[5]; 100 μmol/kg p.o.,significantly attenuated
same,numbers of all inflammatory cells examined in BALF,[6],unaffected
same,"increases in numbers of total inflammatory cells, macrophages, lymphocytes, neutrophils, and eosinophils in BALF",[6]; 100 μmol/kg p.o.,significantly suppressed
same,IC50,PDE4 [1],> 100 µM
same,duration of xylazine/ketamine-induced anesthesia,"[2]; 300 μmol/kg s.c., 1 h before anesthesia","Neither hesperidin nor hesperidin-3′-O-methylether (each 300 μmol/kg, s.c.) influenced the duration"
same,IC50,PDE3,> 100 µM
same,total and OVA-specific IgE levels in the serum and BALF,[7]; 30 μmol/kg p.o.,"but not hesperidin, significantly suppressed"
same,levels of total and ovalbumin-specific IgE in the BALF and serum,[7]; 100 μmol/kg p.o.,significantly suppressed
same,reduction of total IgG2a level in the serum,[7]; 100 μmol/kg p.o.,significantly reversed
same,increase in level of TNF-α in BALF,cytokines in BALF; 100 μmol/kg p.o.,significantly suppressed
same,level of IFN-γ in BALF compared to the control,cytokines in BALF; 100 μmol/kg p.o.,significantly enhanced
same,"increases in levels of IL-2, IL-4, IL-5 in BALF",cytokines in BALF; 30∼100 μmol/kg p.o.,significantly suppressed
same,EC50,[3]; [9],> 300 µM
same,displacement of 2 nM [3H]-rolipram binding on HARBSs,"[3]; 300 μM, guinea pig brain cell membranes",27.0 ± 1.4%
same,PDE4H/PDE4L ratio,[3],3
COc1ccc([C@@H]2CC(=O)c3c(O)cc(O)cc3O2)cc1O [hesperetin],xylazine/ketamine-induced anesthesia,[8],not influence
same,IC50,PDE4 [4],28.2 µM
COc1ccc(C2CC(=O)c3c(O)cc(O[C@@H]4O[C@H](CO[C@@H]5O[C@@H](C)[C@H](O)[C@@H](O)[C@H]5O)[C@@H](O)[C@H](O)[C@H]4O)cc3O2)cc1OC (stereo partly shown) [hesperidin-3′-O-methylether],IC50,PDE1,13.6 ± 2.3 µM
same,Penh value at the baseline,[5]; 10 μmol/kg p.o.,2.41 ± 0.05
same,Penh value with PBS nebulization,[5]; 10 μmol/kg p.o.,2.41 ± 0.06
same,suppression of AHR,[5]; 30 μmol/kg p.o.,significantly suppressed AHR
same,Penh value at the baseline,[5]; 30 μmol/kg p.o.,2.38 ± 0.06
same,Penh value with PBS nebulization,[5]; 30 μmol/kg p.o.,2.42 ± 0.05
same,Penh value at the baseline,[5]; 100 μmol/kg p.o.,2.41 ± 0.05
same,Penh value with PBS nebulization,[5]; 100 μmol/kg p.o.,2.39 ± 0.06
same,enhancement of Penh values induced by 25 and 50 mg/mL methacholine,[5]; 30∼100 μmol/kg p.o.,significantly attenuated
same,numbers of all types of inflammatory cells in BALF,[6]; 10 μmol/kg p.o.,unaffected
same,numbers of all inflammatory cells examined in BALF,[6],significantly suppressed
same,"increases in numbers of total inflammatory cells, macrophages, lymphocytes, neutrophils, and eosinophils in BALF",[6]; 30∼100 μmol/kg p.o.,significantly suppressed
same,IC50,PDE4 [1],13.9 ± 2.4 µM
same,IC50,PDE3,13.2 ± 0.9 µM
same,level of total IgG2a in the serum,[7]; 30 μmol/kg p.o.,enhanced
same,total and OVA-specific IgE levels in the serum and BALF,[7]; 30 μmol/kg p.o.,significantly suppressed
same,levels of total and ovalbumin-specific IgE in the serum and BALF,[7]; 30∼100 μmol/kg p.o.,dose-dependently and significantly suppressed
same,reduction of total IgG2a level in the serum,[7]; 30∼100 μmol/kg p.o.,dose-dependently and significantly reversed
same,level of IFN-γ in BALF compared to the control,cytokines in BALF; 100 μmol/kg p.o.,significantly enhanced
same,"increases in levels of IL-2, IL-4, TNF-α in BALF",cytokines in BALF; 10∼100 μmol/kg p.o.,significantly suppressed
same,increase in level of IL-5 in BALF,cytokines in BALF; 30∼100 μmol/kg p.o.,significantly suppressed
same,EC50,[3]; [9],218 ± 32.1 µM
same,PDE4H/PDE4L ratio,[3],15.7
"Cc1[nH]c(=O)c(C#N)cc1-c1ccncc1 [milrinone, reference compound]",IC50,PDE3,2.7 ± 0.8 µM
